Molecules are shown by their SMILES.

For `O=C(c1ccc(Cl)cc1)[C@H]1C[C@H]1C(=O)N1CCC(N2Cc3ccccc3NC2=O)CC1` (relative stereo) [Item No. 1, cis-3-{1-[2-(4-chlorobenzoyl)cyclopropanecarbonyl]-4-piperidinyl}-3,4-dihydro-2(1H)-quinazolinone], the melting point (usually the temperature, or range, at which the solid turns liquid) is 272 to 273 °C. The same measure for `CN(C)CCOc1ccc2c(c1)CN(C1CCN(C(=O)[C@@H]3C[C@H]3C(=O)c3cc(Br)c(N)c(Br)c3)CC1)C(=O)N2` (relative stereo) [Item No. 16, trans-3-{1-[2-(4-amino-3,5-dibromobenzoyl)cyclopropanecarbonyl]-4-piperidinyl}-3,4-dihydro-6-[2-(dimethylamino)ethoxy]-2(1H)-quinazolinone]: 235 °C; for `Nc1c(Br)cc(C(=O)[C@@H]2C[C@H]2C(=O)N2CCC(n3cc(-c4ccccc4C(F)(F)F)[nH]c3=O)CC2)cc1Br` (relative stereo) [Item No. 18, trans-1-{1-[2-(4-amino-3,5-dibromobenzoyl)cyclopropanecarbonyl]-4-piperidinyl}-1,3-dihydro-4-[2-(trifluoromethyl)phenyl]-2(2H)-imidazolone]: 248 °C.
